Laboratory results reported in article PMC3299889 (Analytical Biochemistry, 2012).

Experiments:
Type in all cases: biochemical
HCV NS3/4A = HCV NS3/4A (Hepatitis C virus genotype 1a, UniProt P27958)
SARS-CoV 3CLpro = SARS-CoV 3CLpro (Severe acute respiratory syndrome coronavirus, UniProt P0C6X7)
SARS-CoV PLpro = SARS-CoV PLpro (Severe acute respiratory syndrome coronavirus, UniProt P0C6X7)

Chain of HCV NS3/4A (P27958 1027-1657): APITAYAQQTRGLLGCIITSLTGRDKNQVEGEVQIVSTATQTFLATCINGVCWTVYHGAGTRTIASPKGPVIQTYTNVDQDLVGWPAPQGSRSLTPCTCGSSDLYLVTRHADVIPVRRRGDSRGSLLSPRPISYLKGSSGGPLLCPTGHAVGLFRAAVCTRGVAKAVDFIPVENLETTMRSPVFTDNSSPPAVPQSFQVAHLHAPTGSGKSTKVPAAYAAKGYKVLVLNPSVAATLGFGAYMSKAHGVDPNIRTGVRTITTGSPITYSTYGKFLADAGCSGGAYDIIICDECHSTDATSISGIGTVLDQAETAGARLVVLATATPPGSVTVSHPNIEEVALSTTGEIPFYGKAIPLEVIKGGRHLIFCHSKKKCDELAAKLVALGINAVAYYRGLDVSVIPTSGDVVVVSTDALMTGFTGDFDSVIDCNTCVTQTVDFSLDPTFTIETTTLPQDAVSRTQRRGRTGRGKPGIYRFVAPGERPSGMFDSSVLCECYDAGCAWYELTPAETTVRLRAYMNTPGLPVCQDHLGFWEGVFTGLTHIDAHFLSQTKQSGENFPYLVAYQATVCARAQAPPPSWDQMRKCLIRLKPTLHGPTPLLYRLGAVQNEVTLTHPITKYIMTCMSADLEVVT
Chain of HCV NS3/4A (P27958 1658-1711 partner limits assumed): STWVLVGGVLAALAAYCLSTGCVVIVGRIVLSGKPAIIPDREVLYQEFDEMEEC

## O[C@@H](CS)[C@@H](O)CS (racemic) [DTT, dithiothreitol]
HCV NS3/4A
  Vmax: 181 ± 21 RFU/10 min
  change of enzyme efficiency (Kcat/KM): 1.6 fold
SARS-CoV 3CLpro
  Vmax: 435 ± 12 RFU/10 min
SARS-CoV PLpro
  Vmax: 813 ± 36 RFU/10 min
  increase of KM: 4 fold

## N[C@@H](CCC(=O)N[C@@H](CS)C(=O)NCC(=O)O)C(=O)O [GSH, reduced glutathione]
HCV NS3/4A
  Kcat/KM ratio: 1.5
  Vmax: 151 ± 8 RFU/10 min
SARS-CoV 3CLpro
  Kcat/KM ratio: 1.2
  Km: 16.1 ± 0.8 µM
  Vmax: 516 ± 9 RFU/10 min
SARS-CoV PLpro
  Kcat/KM ratio: 1.0
  Vmax: 449 ± 14 RFU/10 min
  increase of KM: 1.5 fold

## O=C(O)CCP(CCC(=O)O)CCC(=O)O [TCEP, tris(2-carboxyethyl)phosphine]
HCV NS3/4A
  Kcat/KM ratio: 0.5
  Vmax: 75 ± 15 RFU/10 min
SARS-CoV 3CLpro
  Vmax: 472 ± 18 RFU/10 min
SARS-CoV PLpro
  Vmax: 441 ± 41 RFU/10 min
  increase of KM: 2.5 fold

## OCCS [β-MCE, β-mercaptoethanol]
HCV NS3/4A
  Kcat/KM ratio: 1.4
  Km: 2.5 ± 0.1 µM
  Vmax: 161 ± 8 RFU/10 min
SARS-CoV 3CLpro
  Kcat/KM ratio: 1.2
  Km: 14.8 ± 1.2 µM
  Vmax: 453 ± 24 RFU/10 min
SARS-CoV PLpro
  Kcat/KM ratio: 1.2
  Km: 117 ± 7 µM
  Vmax: 438 ± 30 RFU/10 min
